Data from article PMC12562379, “Facile Synthesis of N-vinylindoles via Knoevenagel Condensation: Molecular Features and Biological Activities” (International Journal of Molecular Sciences, 2025).
Converted amounts (≈) assume the structure as drawn. Structures can show the parent of a compound that is named as a salt.

Assays:
AGS = assay: MTT assay, cytotoxic activity; assay type: cell-based, human; settings: Homo sapiens, 24 h, n = 12
Procedure: (§1) The human ovarian SKOV-3, gastric adenocarcinoma AGS, cervical HeLa cell lines and non-cancerous keratinocytes HaCaT were obtained from the American Type Culture Collection (ATCC, Manassas, VA, USA). The cell lines were cultured in McCoy’s Medium, Dulbecco’s Modified Eagle’s Medium/F12, and DMEM, respectively (Merck Millipore, Burlington, MA, USA). Penicillin (100 units/mL), streptomycin ([…]), and 10% (v/v) fetal bovine serum (FBS) were added to all the media. The cells were incubated at 37 °C and 5% CO2.
(§2) To estimate the cytotoxic activity of the obtained compounds 2a-i, MTT assay was used. The cells (5 × 10^3 cells/well) were treated with the compounds in a range of concentrations 1–150 µg/mL. […] After 24 h, MTT solution (0.5 mg/mL) was added to the cells. Formazan crystals were dissolved in DMSO and the absorbance was measured with a microtiter plate reader (Epoch, BioTek Instruments, Winooski, VT, USA).

SKOV-3 = assay: MTT assay, cytotoxic activity; assay type: cell-based, human; settings: Homo sapiens, SK-OV-3; SKOV-3, MTT, 24 h, n = 12
Procedure: as §1, §2

HeLa = assay: MTT assay, cytotoxic activity; assay type: cell-based, human; settings: Homo sapiens, 24 h, n = 12
Procedure: as §1, §2

C. albicans ATCC 10231 = assay: Microbroth dilution assay; assay type: cell-based, Candida albicans; settings: Candida albicans, ATCC10231, C. albicans ATCC 10231; for MFC: read-out: MFC; for MIC: read-out: MIC
Procedure: (§3) The minimum inhibitory concentration (MIC) and minimum bactericidal/fungicidal concentration (MBC/MFC) of the tested compounds were determined by the microbroth dilution technique using 96-well plates based on the methodology described in the EUCAST (European Committee on Antimicrobial Susceptibility Testing) standards. Reference and clinical strains of Gram-positive (Staphylococcus aureus ATCC 6538, Staphylococuccus aureus MRSA 6347) and Gram-negative (Escherichia coli ATCC 8739) bacteria, and yeast (Candida albicans ATCC 10231, Candida glabrata ATCC 2001) were used for the assay. The studies were carried out in the Mueller–Hinton (MH) broth for bacteria and RPMI 1640 broth + MOPS (Sigma-Aldrich, Poland) buffer in the case of yeast. The dry test samples were dissolved in DMSO (dimethyl sulfoxide), resulting in a final concentration of 15 mg/mL, and then diluted in a geometric progression. Ampicillin (Sigma-Aldrich, Poland) acted as a control sample (512 to 4 µg/mL) for bacteria and ketoconazole (128 to 1 µg/mL) (Sigma-Aldrich, Poland) acted as a control sample for yeast. The cultures of microorganisms were prepared by transferring cells from the stock cultures to tubes with the appropriate broth and incubated with agitation in an aerobic atmosphere for 18 ± 2 h at 35 ± 1 °C; next, they were diluted to achieve an optical density corresponding to 5 × 105 (bacteria) or 2 × 105 (yeast) colony-forming units per mL (cfu/mL). An appropriate media (96 µL), along with the tested compounds with a final concentration range of 300–3.1 µg/mL (4 µL) and next microbial suspension (100 µL) were added to each well. Plates with samples were incubated in adequate conditions described above and microbial growth was assessed. […] (>90%; ketoconazole) but 50% (for other compounds) inhibits visible growth of yeasts. Next, as a control of microbial viability, 100 µL of the samples from each well without growth was inoculated on the MH or RPMI agar plates and incubated for 18 ± 2 h at 35 ± 1 °C and finally, the CFU was counted. The MBC/MFC was determined as the minimum concentration of compounds required to kill 99.9% the organisms.

C. glabrata ATCC 2001 = assay: Microbroth dilution assay; assay type: cell-based, Candida glabrata; settings: Nakaseomyces glabratus, ATCC2001
Procedure: as §3

S. aureus MRSA 12673 = assay: Microbroth dilution assay; assay type: cell-based; settings: Staphylococcus aureus, S. aureus MRSA 12673; for MIC: read-out: MIC
S. aureus ATCC 6535 = assay: Microbroth dilution assay; assay type: cell-based; settings: Staphylococcus aureus, ATCC6535
HaCaT = assay: MTT assay, cytotoxic activity on non-cancerous keratinocytes; assay type: cell-based; settings: Homo sapiens, 24 h, n = 12
Procedure: as §1, §2

E. coli ATCC 8739 = assay: Microbroth dilution assay; assay type: cell-based; settings: Escherichia coli, ATCC8739, E. coli ATCC 8739; for MIC: read-out: MIC
Procedure: as §3

[1] = molecular target: T1, AGE2-BSA/sRAGE interaction (Homo sapiens, UniProt Q15109); assay: ELISA AGE2-BSA/sRAGE inhibitory screening; assay type: binding
T1 construct: purchased Creative BioMart
T1 sequence (Q15109 23-342 limits assumed): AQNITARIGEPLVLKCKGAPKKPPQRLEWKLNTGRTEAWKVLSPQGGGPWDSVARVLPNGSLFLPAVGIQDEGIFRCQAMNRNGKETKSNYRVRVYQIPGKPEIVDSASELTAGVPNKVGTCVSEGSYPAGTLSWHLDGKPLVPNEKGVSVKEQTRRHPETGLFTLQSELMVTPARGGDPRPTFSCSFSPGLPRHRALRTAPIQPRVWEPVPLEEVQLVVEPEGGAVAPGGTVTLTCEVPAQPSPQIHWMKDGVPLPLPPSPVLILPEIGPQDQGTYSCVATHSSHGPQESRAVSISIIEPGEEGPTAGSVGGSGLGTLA
Procedure: The in vitro inhibitor screening of AGE2 (glyceraldehyde-modified AGE)-sRAGE interaction (soluble RAGE) was performed using a 96-well AGE-BSA-coated plate (Creative BioMart® ELISA kit, Shirley, NY, USA), according to the manufacturer’s instructions. 100 UA/mL soluble RAGE (sRAGE) was incubated with 100 μM of the tested compounds or 0.05% DMSO as a negative control on an AGE2-BSA-coated plate at room temperature for 60 min, shaking at 300 rpm on an orbital microplate shaker. After incubation, the wells were washed 4 times with wash buffer and horseradish peroxidase (HRP)-labeled anti-RAGE antibody was added and the plate was further incubated at room temperature for 60 min, shaking at 300 rpm on an orbital microplate shaker. After incubation, the wells were washed 4 times with wash buffer and the Substrate Reagent was added to each well. After an incubation at room temperature for 5 min, the HRP-labeled antibody sRAGE-AGE complex was then detected by measuring the absorbance at 450 nm using the microplate reader Varioskan (Thermo Fischer Scientific). These experiments were repeated two times.

[2] = system: HeLa, SKOV-3, AGS (and HaCaT) cell lines; assay: MTT assay, ranges stated over several cell lines; assay type: cell-based, human; settings: Homo sapiens
Procedure: as §1, §2

[3] = range over HeLa and SKOV-3 cell lines

MIC (C. albicans ATCC 10231) [µg/mL] | MIC (C. glabrata ATCC 2001) [µg/mL] | MIC (S. aureus MRSA 12673) [µg/mL] | MIC (S. aureus ATCC 6535) [µg/mL] | MIC (E. coli ATCC 8739) [µg/mL] | inhibition at 100 µM [1] [%] | Compound | IC50 (AGS) [µg/mL] | IC50 (SKOV-3) [µg/mL] | IC50 (HeLa) [µg/mL] | MFC (C. albicans ATCC 10231) [µg/mL] | MFC (C. glabrata ATCC 2001) [µg/mL] | MBC (S. aureus MRSA 12673) [µg/mL] | MBC (S. aureus ATCC 6535) [µg/mL] | IC50 (HaCaT) [µg/mL] | MBC (E. coli ATCC 8739) [µg/mL] | IC50 [2, 3] [µg/mL] | IC50 ([2]; range over the cancer cell lines HeLa, SKOV-3 and AGS) [µg/mL]
120 (≈ 373 µM) | 240 (≈ 746 µM) | 60 (≈ 186 µM) | 30 (≈ 93.2 µM) | 120 (≈ 373 µM) | 34.7 | Clc1ccc(/C=C(/C2=NCCN2)n2ccc3ccccc32)cc1 [Compound 2e, (Z)-1-[2-(4-chlorophenyl)-1-(4,5-dihydro-1H-imidazol-2-yl)vinyl]-1H-indole] | 11.4 ± 0.74 (≈ 35.3 µM) | 4.4 ± 0.16 (≈ 13.7 µM) | 3.13 ± 0.3 (≈ 9.73 µM) | 240 (≈ 746 µM) | 240 (≈ 746 µM) | 240 (≈ 746 µM) | 60 (≈ 186 µM) | 3.43 ± 0.05 (≈ 10.7 µM) | 240 (≈ 746 µM) | 3.13 to 4.4 (≈ 9.73 to 13.7 µM) | –
> 220 | > 220 | > 220 | 110 (≈ 347 µM) | 220 (≈ 693 µM) | – | COc1ccc(/C=C(/C2=NCCN2)n2ccc3ccccc32)cc1 [Compound 2c, (Z)-1-[1-(4,5-dihydro-1H-imidazol-2-yl)-2-(4-methoxyphenyl)vinyl]-1H-indole] | 10.29 ± 0.08 (≈ 32.4 µM) | 8.8 ± 0.46 (≈ 27.7 µM) | 7.86 ± 0.59 (≈ 24.8 µM) | > 220 | > 220 | > 220 | 110 (≈ 347 µM) | 9.11 ± 1.58 (≈ 28.7 µM) | > 220 | – | –
> 220 | > 220 | 110 (≈ 331 µM) | 55 (≈ 165 µM) | 220 (≈ 662 µM) | – | O=[N+]([O-])c1ccc(/C=C(/C2=NCCN2)n2ccc3ccccc32)cc1 [Compound 2g, (Z)-1-[1-(4,5-dihydro-1H-imidazol-2-yl)-2-(4-nitrophenyl)vinyl]-1H-indole] | 10.14 ± 0.08 (≈ 30.5 µM) | 7.06 ± 0.62 (≈ 21.2 µM) | 5.6 ± 0.57 (≈ 16.8 µM) | > 220 | > 220 | > 220 | 110 (≈ 331 µM) | 9.15 ± 0.74 (≈ 27.5 µM) | > 220 | 5.6 to 7.06 (≈ 16.8 to 21.2 µM) | –

Continued, molecule first:

Compound | MIC (C. albicans ATCC 10231) [µg/mL] | MIC (C. glabrata ATCC 2001) [µg/mL] | MIC (S. aureus MRSA 12673) [µg/mL] | MIC (S. aureus ATCC 6535) [µg/mL] | MIC (E. coli ATCC 8739) [µg/mL] | inhibition at 100 µM [1] [%] | IC50 (AGS) [µg/mL] | IC50 (SKOV-3) [µg/mL] | IC50 (HeLa) [µg/mL] | MFC (C. albicans ATCC 10231) [µg/mL] | MFC (C. glabrata ATCC 2001) [µg/mL] | MBC (S. aureus MRSA 12673) [µg/mL] | MBC (S. aureus ATCC 6535) [µg/mL] | IC50 (HaCaT) [µg/mL] | MBC (E. coli ATCC 8739) [µg/mL] | IC50 [2, 3] [µg/mL] | IC50 ([2]; range over the cancer cell lines HeLa, SKOV-3 and AGS) [µg/mL]
C(=C(\C1=NCCN1)n1ccc2ccccc21)/c1ccccc1 [Compound 2a, (Z)-1-[1-(4,5-dihydro-1H-imidazol-2-yl)-2-(phenyl)vinyl]-1H-indole] | > 220 | > 220 | 220 (≈ 766 µM) | 110 (≈ 383 µM) | 220 (≈ 766 µM) | – | 17.2 ± 0.68 (≈ 60 µM) | 9.81 ± 0.45 (≈ 34.1 µM) | 8.96 ± 0.33 (≈ 31.2 µM) | > 220 | > 220 | > 220 | 220 (≈ 766 µM) | 11.7 ± 1.31 (≈ 40.7 µM) | 220 (≈ 766 µM) | – | –
CC[C@]1(O)C[C@@H]2CN(CCc3c([nH]c4ccccc34)[C@@](C(=O)OC)(c3cc4c(cc3OC)N(C)[C@H]3[C@@](O)(C(=O)OC)[C@H](OC(C)=O)[C@]5(CC)C=CCN6CC[C@]43[C@@H]65)C2)C1 [Vinblastine sulfate, reference compound] | – | – | – | – | – | – | – | 0.008 ± 0.0003 | 0.005 ± 0.0004 | – | – | – | – | – | – | – | –
Brc1ccc(/C=C(/C2=NCCN2)n2ccc3ccccc32)cc1 [Compound 2f, (Z)-1-[2-(4-bromophenyl)-1-(4,5-dihydro-1H-imidazol-2-yl)vinyl]-1H-indole] | 110 (≈ 300 µM) | 220 (≈ 601 µM) | 55 (≈ 150 µM) | 27.5 (≈ 75.1 µM) | 110 (≈ 300 µM) | 46.6 | 11.1 ± 1.24 (≈ 30.4 µM) | 2.76 ± 0.18 (≈ 7.54 µM) | 2.37 ± 0.15 (≈ 6.47 µM) | 110 (≈ 300 µM) | 220 (≈ 601 µM) | 110 (≈ 300 µM) | 55 (≈ 150 µM) | 3.13 ± 0.09 (≈ 8.55 µM) | 110 (≈ 300 µM) | 2.37 to 2.76 (≈ 6.47 to 7.54 µM) | 2.37 to 11.1 (≈ 6.47 to 30.4 µM)
